{"source": "patent US20260273029A1", "about": "“DRY EYE TREATMENT” (Inoculus Ventures, LLC, priority 2022, published 2026)", "key": {"[1]": {"test_system": "Staphylococcus aureus biofilms", "test": "S. Aureus biofilm reduction in 96 well plate: 10 min treatment, crystal violet stain, optical density at 600 nm", "type": "cell-based, Staphylococcus aureus subsp. aureus Rosenbach (ATCC 29213)", "conditions": "for Reduction in Enzyme Effectiveness by preservative: 10 mg/mL α-amylase + preservative, FIG. 12A, 12B", "protocol": "• Step 1. Place a new CuveTip on the Photopette • Step 2. Turn on the Photopette and ensure the bluetooth has connected to the iPad. • Step 3. Open the App and set the measurement to collect at 600 nm (use ecoli setting for brevity). • Step 4. Zero the Photopette in DI water, and clean the tip with a chemwipe. • Step 5. Aseptically transfer 100 ml of the TSB citrate media (TSBC) to a flask. • Step 6. Aseptically transfer the overnight culture of Staphylococcus aureus subsp. aureus Rosenbach (ATCC 29213) in Tryptic Soy Broth to the TSB citrate media (TSBC) using a pipet until the culture is diluted to A600 of 0.02 (~2×10^8 CFU/ml) measured with the Photopette. • Step 7. Remove a sterile 96 well plate from the sterile packaging in the hood and place on the table. • Step 8. Set an 8 channel pipet for […] and attach sterile tips. • Step 9. Plate the desired number of wells with […] of the diluted culture. • Step 10. Cover the well plate and incubate overnight for 18 hrs at 37° C.\nPlate S. Aureus in all wells of a 96 tissue culture treated well plate. The well plate should incubate for 18 hrs at 37° C. before being assayed for biofilm formation.\nCarefully tilt plate and pipet all liquid from the wells by inserting the pipet tips in the bottom corner of the wells to remove non-adherent cells without disturbing the biofilm grown on the bottom of the well.\nStart a timer for 10 minutes when the first row is treated using an 8-channel pipette. Each row should be treated every 30 seconds making sure to gently release the composition in the corner of the well to not disturb the biofilm mechanically.\nAfter 10 min all fluid should be removed row by row every 30 seconds starting with Row 1. The fluid must be removed with gentle pipetting, with the plate at an angle, with the pipette in the corner to remove non-adherent cells without disturbing the biofilm grown on the bottom of the well.\nAdd 50 μl of 0.1% crystal violet (CV) to stain adherent cells for all wells.\nCarefully rinse all wells by submerging the plate in a DI water bath to remove all remaining crystal violet.\nDry the well plate and measure the optical density of the biofilms using a plate reader at 600 nm.\nRepeat the steps outlined in 1.2 and 1.3 for scheduled testing days on days 7, 14, 21, 28, and 35. For each day of testing scheduled at days 7, 14, 21, 28, and 35 a well plate of biofilm should be prepared the day before.\nThe remaining biofilm density was assessed using a cell plate reader at 600 nm called an optical density 600 (OD600) measurement.\nStaphylococcus aureus biofilms were grown in 96 well (Corning Falcon) cell culture treated plates using a TSB broth supplemented with yeast extract, glucose, and sodium citrate to induce biofilm formation and incubated for 18 hours.\nNon-adherent cells were removed and the biofilms were treated with different solutions to test the ability to break down the Staph. aureus biofilms. Solutions with α-amylase were produced at 10 mg/mL using α-amylase from Aspergillus oryzae (Sigma-Aldrich Catalog #10065) ~30 U/mg.\nAfter 10 minutes of incubation non-adherent cells were removed and the residual biofilms were stained with crystal violet. The density of the remaining biofilm was measured at 600 nm using a Byonoy Absorbance 96 plate reader.\nStaphylococcus aureus biofilms were grown in 96 well (Crnming Falcon) cell culture treated plates using a TSB broth supplemented with yeast extract, glucose, and sodium citrate to induce biofilm formation and incubated for 18 hours. […]"}, "biofilm on the eyelid": {"test_system": "biofilm on the eyelid", "test": "Treatment of a human subject (Example 13): eyelid photographs and reported symptoms", "type": "in vivo", "conditions": "daily Avenova", "text": "All images are from the same subject at the Watson Dry Eye Center in Raleigh NC at the specified times. The images were reviewed retrospectively to determine if the visual signs of biofilm on the eyelid were removed by a composition of α-amylase from Aspergillus oryzae and 0.01% hypochlorous acid. It should be noted that from May 23, 2018-Nov. 20, 2020 the patient cleaned their eyes with just 0.01% hypochlorous acid in saline two times a day. After this, the patient used the novel composition of α-amylase from Aspergillus oryzae and 0.01% hypochlorous acid. The first composition was made from powdered α-amylase from Aspergillus oryzae and liquid 0.01% hypochlorous acid in saline right before application to the eyelid with a cotton swab. […] Dosage information is written on the timeline below.\nFIG. 1A and FIG. 1B are photographs depicting two different areas of an eye of the subject afflicted with blocked meibomian glands, shiny biofilm at the base of eyelashes, shine biofilm on eyelashes, and lash growth misdirection taken on May 23, 2018 (time 0). After the photos were taken, the subject was treated with Blephex and Intense Pulse Light Therapy for biofilm removal treating inflammation.\nSubject received a subsequent treatment session on Dec. 4, 2018. FIG. 2A and FIG. 2B are photographs depicting the two different areas of the eye of the subject on Dec. […]"}}, "data": [{"compound": "benzalkonium chloride [BAK (benzalkonium chloride) 0.01%]", "values": [{"measurement": "Reduction in Enzyme Effectiveness by preservative", "setting": "[1]; 10 min", "value": "No Reduction in Enzyme Effectiveness"}]}, {"compound": "sodium perborate [GenAqua/Dequest (sodium perborate)]", "values": [{"measurement": "Reduction in Enzyme Effectiveness by preservative", "setting": "[1]; 10 min", "value": "No Reduction in Enzyme Effectiveness"}]}, {"compound": "OCl", "note": "[0.01% hypochlorous acid, hypochlorous acid]", "values": [{"measurement": "biofilm at the eyelashes", "setting": "biofilm on the eyelid; time 2 (June 18 2019), FIG. 3A", "value": "the biofilm continues to grow at the base of the eyelashes"}, {"measurement": "biofilm at the eyelashes and eyelid", "setting": "biofilm on the eyelid; time 3 (October 15 2019), FIGS. 4A and 4B", "value": "the shine biofilm remains at the eyelashes and inside the eyelid"}, {"measurement": "inhibition of biofilm removal by the enzyme", "setting": "[1]; 0.01% hypochlorous acid with 10 mg/ml α-amylase and cofactors, FIG. 13", "value": "did not inhibit biofilm removal by the enzyme"}, {"measurement": "biofilm reduction by the additive on its own", "setting": "[1]; without α-amylase, 10 min", "value": "slightly reduce the biofilm"}]}, {"compound": "OC[C@H]1O[C@H](O[C@H]2O[C@H](CO)[C@@H](O)[C@H](O)[C@H]2O)[C@H](O)[C@@H](O)[C@@H]1O", "note": "[Trehalose]", "values": [{"measurement": "differences in the enzyme activity (break down of biofilms) between concentrations", "setting": "[1]; 3%, 6.8%, and 8% Trehalose solutions, α=0.05, FIG. 17", "value": "no significant differences"}]}]}
